This note sets out measurements from ChEMBL document CHEMBL1201862, “PubChem BioAssay data set” (2004).

Test [1] in a line: cytotoxicity in HeLa cells, dose response, cytotoxicity control, cell-based, 24 h, dry powder, set 2 (AID 651774). Type of test: functional.
The next test deals with HeLa. Nature of the test: HeLa cell cytotoxicity, dose response, cytotoxicity control, ATP luminescence, cherry-pick samples (AID 687004). Type of test: functional, cell-based. To be noted: Homo sapiens.
For a further test, the system named is HEK293. Nature of the test: HEK293T cell cytotoxicity, dose response, cytotoxicity control, ATP luminescence, cherry-pick samples (AID 687005).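 Note: cells exposed to compound for 48 hours.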 Type of test: functional, cell-based. To be noted: Homo sapiens.
A short description of test [2]: HEK293 Cytotoxicity Assay Measured in Cell-Based System Using Plate Reader - 7071-01_Inhibitor_Dose_CherryPick_Activity_Set2. Type of test: functional.
A short description of test [3]: P. falciparum 3D7-ScDHODH growth inhibitors, dose response, SYBR Green, dry powder samples (AID 1159570).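 Note: parasite growth measured after 72 hours of compound exposure.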 Type of test: functional, cell-based.
A short description of test [4]: HepG2 cell cytotoxicity, dose response, cytotoxicity control, plate reader, dry powder samples (AID 1159569).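 Note: inhibitor potency with signal falling toward the positive control level.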 Type of test: functional, cell-based.
A short description of test [5]: P. falciparum Dd2 growth inhibitors, dose response, SYBR Green, dry powder samples (AID 1159566).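 Note: potency for growth inhibition with lower SYBR green DNA signal.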 Type of test: functional, cell-based.
Test [6] is described as follows: P. falciparum ATP4 D1247Y mutant growth inhibitors, dose response, NITD609-resistant line, SYBR Green, dry powder (AID 1159571).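 Note: parasites synchronized at ring stage by sorbitol before testing.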 The format is functional, cell-based.
In the next test the target is Paired box protein Pax-8 (Homo sapiens, UniProt Q06710). Nature of the test: inhibitors of PAX8-driven TPO luciferase reporter, dose response, RMG-I cells, cherry-pick (AID 687027).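 Note: luciferase reporter driven by Pax8 target thyroperoxidase promoter measured by SteadyGlo luminescence.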 The format is functional, cell-based.
Test [7] can be described thus: NIH:OVCAR-3 ovarian cancer cell cytotoxicity, dose response, PAX8 inhibitor project, plate reader, dry powder samples (AID 743044). Type of test: functional, cell-based.
Test [8] can be described thus: IGROV1 ovarian cancer cell cytotoxicity, dose response, PAX8 inhibitor project, plate reader, dry powder samples (AID 743043). The format is functional, cell-based. As to conditions: IGROV-1.
Test [9] is described as follows: cytotoxicity in OVCAR8 ovarian cancer cells, dose response, PAX8 project, cell-based, plate reader, dry powder samples (AID 743197). Type of test: functional. To be noted: OVCAR-8.
Test [10] is described as follows: HepG2 cell cytotoxicity, dose response, cytotoxicity control, cherry-picks, set 5 (AID 1053118). The format is functional, cell-based.
Test [11] is described as follows: HEK293 cell cytotoxicity, dose response, cytotoxicity control, cherry-picks, set 5 (AID 1053117). Type of test: functional, cell-based.
In a further test the target is Major prion protein (Homo sapiens, UniProt P04156). The format is functional, cell-based.
The target in test [12] is T1, Microphthalmia-associated transcription factor (Homo sapiens, UniProt O75030).
T1 sequence (O75030 whole entry): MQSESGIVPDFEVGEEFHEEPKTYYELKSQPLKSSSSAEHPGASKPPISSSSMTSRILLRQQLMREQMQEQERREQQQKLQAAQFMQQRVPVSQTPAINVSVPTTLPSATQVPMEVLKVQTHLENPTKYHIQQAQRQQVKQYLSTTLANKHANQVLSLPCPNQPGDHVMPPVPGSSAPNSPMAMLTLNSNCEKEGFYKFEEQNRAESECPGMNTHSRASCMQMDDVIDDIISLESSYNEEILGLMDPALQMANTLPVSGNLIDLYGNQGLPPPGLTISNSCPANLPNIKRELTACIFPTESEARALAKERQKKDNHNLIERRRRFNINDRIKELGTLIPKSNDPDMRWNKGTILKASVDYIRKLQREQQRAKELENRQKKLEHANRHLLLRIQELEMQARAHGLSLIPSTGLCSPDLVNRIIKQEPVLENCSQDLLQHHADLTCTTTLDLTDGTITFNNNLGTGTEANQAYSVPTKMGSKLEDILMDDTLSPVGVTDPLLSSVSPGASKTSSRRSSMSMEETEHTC
The test can be described thus: TRPM1 promoter luciferase signal decrease, dose response, MITF inhibitor project, cell-based, SK-MEL-5, cherry-picked, set 3 (AID 493073).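 Note: SK-MEL-5 melanoma cells with luciferase driven by the MITF target TRPM1 promoter.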 The format is functional.

The subject of a further test is INS1. The test can be described thus: beta cell apoptosis inhibitors, cytokine rescue, dose response, luminescence, retest (AID 449756).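 Note: cell death triggered by IL-1 beta plus TNF-alpha plus IFN-gamma mixture; protective hits raise ATP signal compared with cytokine alone wells.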 The format is functional, cell-based. To be noted: Rattus norvegicus.
Test [13] is described as follows: miR-122 activators in hepatoma reporter cells, dose response, cell-based, Huh7 psiCHECK-miR122, Renilla luciferase, cherry-picked (AID 651956).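 Note: huh7 hepatoma cells stably carrying a psiCHECK-2 miR-122 sensor plasmid; renilla luciferase signal reporting endogenous miR-122 activity after 48 h compound exposure.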 Type of test: functional.
Test [14] in a line: HEK293T cytotoxicity, dose response, cytotoxicity control for miR-122 modulator project, cell-based, inhibitor set, cherry-pick, set 2 (AID 720697). The format is functional.
A short description of test [15]: HEK293T cytotoxicity, dose response, cytotoxicity control for miR-122 modulator project, cell-based, activator set, cherry-pick (AID 720690).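 Note: HEK293T human cells scored for general mammalian cytotoxicity.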 Type of test: functional.
Test [16] addresses Potassium channel subfamily K member 3 (Homo sapiens, UniProt O14649). The test can be described thus: TASK1 (KCNK3) potassium channel inhibitors, SAR follow-up, CHO cells, FluxOR thallium flux (AID 652212). The format is functional.
Test [17] deals with Tyrosyl-DNA phosphodiesterase 2 (Homo sapiens, UniProt O95551). Nature of the test: human TDP2 enzyme inhibitors, dose response, biochemical, epi absorbance, IC50 (AID 743297).

Molecules are shown by their SMILES. The source made the active and inactive calls.

Consider `Cn1nnnc1NCc1ccc(C(F)(F)F)cc1`, for which, in test [1], the AC50 (commonly the concentration at which the activity in the assay is half-maximal) was > 70 µM (inactive).

With `N#C[C@H]1[C@@H](c2ccc(C#CCC3CCCC3)cc2)[C@@H](CO)N1C(=O)c1ccccn1`, the concentration at half-maximal activity (AC50) in the test with HeLa is 27.8 µM (active); in the test with HEK293, 15.7 µM (active); in test [2] it was 15.7 µM (active); in test [3] it was 1.73 µM (active); in [4], 46.9 µM (active); in test [5], 0.851 µM (active). Further, the AC50 in test [6] is 1.44 µM (active).

For the compound `Cc1ccc(-c2ccc([C@H]3[C@H](CO)N4CCCCN(S(=O)(=O)c5cccc(C)c5)C[C@@H]34)cc2)cc1`, the concentration at half-maximal activity (AC50) on Paired box protein Pax-8 was 8.11 µM (active); in [7], 31.7 µM (active); in test [8] it was 55.4 µM (active); in test [9], 46 µM (active).

Consider `N#Cc1ccc(-c2ccc3c(c2)[C@H]2[C@H](CCN2S(=O)(=O)c2cccc(F)c2)[C@@H](CO)N3)cc1`, for which the results for the AC50 in [10] and in [11] were 38.1 µM (active) and 32.8 µM (active), respectively.

As for `CCOC(=O)CNC(=O)CSc1nc2c(C)cccc2cc1CC`, the half-inhibitory concentration (IC50) (commonly the concentration at which inhibition is half-maximal) is 2.76 µM (active) on Major prion protein and > 138 µM (inactive) in the test “cells”.

As to `Oc1c(Cl)cc(Cl)cc1/C=N/Nc1ncc(Br)cn1`, the AC50 is 7.84 µM (active) in test [12]; 0.388 µM (active) with INS1; 54.3 µM (active) in [13]; 5.81 µM (active) in test [14]; 22.9 µM (active) in test [15].

Take `Cc1cccc(S(=O)(=O)Nc2cccc(NC(=O)c3ccccc3)c2)c1`: the IC50 in [16] was 1.45 µM (active).

In the case of `CC1=NN(c2ccccc2)C(=O)/C1=C\c1ccc(Br)s1`, the IC50 in [17] was > 128 µM (inactive).
